From US20090264342A1, “COMPOSITIONS AND METHODS FOR ANTIBIOTIC POTENTIATION AND DRUG DISCOVERY” (priority 2006, published 2009)
pIC50: −log10 of the molar value.

What was measured:
E. coli MG1655 = test: Hydroxyl radical formation (HPF dye, flow cytometry) in E. coli; format: cell-based; settings: for hydroxyl radical formation: E. coli, 250 ng/mL norfloxacin, 5 μg/mL ampicillin, 5 μg/mL kanamycin, bacteriostatic drugs, 3 hours after addition
Protocol: (§1) Growth Conditions. In the experiments, the growth and survival of untreated exponential phase E. coli, or S. aureus, were compared to cultured treated with antibiotics at the above concentrations. E. coli cultures were treated with norfloxacin, kanamycin, ampicillin, rifamycin SV, chloramphenical, tetracycline, erythromycin, or spectinomycin, where appropriate, S. aureus cultures were treated with norfloxacin, vancomycin or chloramphenical, where appropriate.
Hydroxyl radical and DNA damage sensor experiments using the flow cytometer. To monitor the occurrence of DNA damage, the engineered DNA damage sensor was used, which responds to auto-cleavage of LexA by activating expression of gfpmut3b. All the drug treatments and the no-drug controls were collected with both the kanamycin- and ampicillin-resistant version of the plasmid, with the exception of the ampicillin treatment (kanamycin plasmid only) and the kanamycin treatment (ampicillin plasmid only). All data were collected using a Becton Dickinson FACSCalibur flow cytometer (Becton Dickinson, San Jose, Calif.) with a 488-nm argon laser and a 515- to 545-nm emission filter (FL1) at low flow rate. The following PMT voltage settings were used: E00 (FSC), 360 (SSC) and 700 (FL1). To detect hydroxyl radical formation, the fluorescent reporter dye, 3′-(p-hydroxyphenyl) fluorescein (HPF, Invitrogen, Carlsbad, Calif.) was used at a concentration of 5 μM (1:1000) dilution), which is oxidized by hydroxyl radicals with high specificity. The following PMT voltage settings were used: E00 (FSC), 360 (SSC) and 825 (FL 1). Calibrite beads (Becton Dickinson) were used for instrument calibration.
Flow data were processed and analyzed with MATLAB (MathWorks, Natick, Mass.) to construct figures. At least 50,000 cells were collected for each sample. In all experiments, cells were grown as described above. Samples were taken immediately before addition of drug (time zero), then every hour for 3 hours. At each timepoint, approximately […] were collected, washed once and resuspended in filtered 1×PBS, pH 7.2 (Fisher Scientific), and fluorescence was measured on the flow cytometer.
In the present study, the Applicants chose to investigate whether hydroxyl radical formation also contributes to antibiotic-induced cell death in bacteria. Using the dye hydroxyphenyl fluorescein, HPF, which is oxidized by hydroxyl radicals with high specificity, hydroxyl radical formation was first observed over a range of hydrogen peroxide concentrations known to induce hydroxyl radicals through the reduction of hydrogen peroxide by ferrous iron. In this manner, it was possible to establish the scale of hydroxyl radical formation detectable using this dye via flow cytometry.

wild-type E. coli = format: cell-based; settings: norfloxacin, ampicillin or kanamycin treatment plus 2,2′-dipyridyl (500 μM)
Protocol: FIG. 36 is a set of 3 graphs showing the effect of iron chelation, hydroxyl radical quenching of iron-sulfur synthesis on the […] efficiency of bactericidal antibiotics. a,c,e, Log change in colony forming units per mL (CFU/mL, mean+/−standard deviation). Effect of addition of 500 μM 2,2′-dipyridyl or 150 mM thiourea to wildtype E. coli, and on an iron-sulfur cluster synthesis mutant, ΔiscS, on bactericidal drug efficacy and hydroxyl radical formation following exposure to a, 250 ng/mL norfloxacin (Nor), c, 5 μg/mL ampicillin (Amp), or e, 5 μg/mL kanamycin (Kan).
as §1
Application of iron chelators is an established means of blocking Fenton reaction-mediated hydroxyl radical formation by sequestering unbound iron. […]

Streptomyces pneumoniae = settings: more active than ciprofloxacin against this pathogen; cited from earlier work
[1] = test system: SOS response (LexA auto-cleavage) in E. coli; test: SOS induction, LexA-controlled GFP DNA damage sensor; format: cell-based; settings: 5 μg/mL Amp, 5 μg/mL Kan, 25 ng/mL Nor; 3 hours after addition
Protocol: FIG. 37 is a set of two graphs showing SOS induction in E. coli by bactericidal antibiotics. Activation of the SOS response was monitored using an engineered sensor construct that employs the LexA repressor for control of Green Fluorescent Protein (GFP) expression. Shown are representative GFP histogram measurements taken 3 hours after addition of a, bactericidal antibiotics (5 μg/mL Amp, 5 μg/mL Kan, 25 ng/mL Nor). b, Log change in CFU/mL of ΔrecA E. coli following exposure to 5 μg/mL Kanamycin (open diamonds), 25 ng/mL Norfloxacin (open triangles), and 5 μg/mL Ampicillin (open circles). For comparison, CFU/mL are also shown for widltype E. coli exposed to 5 μg/mL Kanamycin (diamonds), 25 ng/mL Norfloxacin (triangles), and 5 μg/mL Ampicillin (circles), as well as a lower concentration of norfloxacin in these experiments to highlight the significant increase in killing in a recA knockout.
DNA damage sensor construction. The DNA sensor construct with ampicillin resistance was described previously (D. J. Dwyer et al., “Superoxide and hydroxyl radicals contribute to gyrase inhibitor-mediated cell death in E. coli”, 2007 accepted by Mol. Syst. Biol., which is incorporated herein by reference in its entirety).
Hydroxyl radical and DNA damage sensor experiments using the flow cytometer. […]
Hydroxyl radical are extremely toxic, and will readily damage membrane lipids, proteins and DNA. […]

E. Coli RecA protein = target: T1, E. Coli RecA protein (Escherichia coli, UniProt P0A7G6); test: RecA ATPase activity, in vitro luciferase assay; format: biochemical; settings: luciferase assay screen
T1 construct: purchased New England Biolabs
T1 sequence (P0A7G6 2-353): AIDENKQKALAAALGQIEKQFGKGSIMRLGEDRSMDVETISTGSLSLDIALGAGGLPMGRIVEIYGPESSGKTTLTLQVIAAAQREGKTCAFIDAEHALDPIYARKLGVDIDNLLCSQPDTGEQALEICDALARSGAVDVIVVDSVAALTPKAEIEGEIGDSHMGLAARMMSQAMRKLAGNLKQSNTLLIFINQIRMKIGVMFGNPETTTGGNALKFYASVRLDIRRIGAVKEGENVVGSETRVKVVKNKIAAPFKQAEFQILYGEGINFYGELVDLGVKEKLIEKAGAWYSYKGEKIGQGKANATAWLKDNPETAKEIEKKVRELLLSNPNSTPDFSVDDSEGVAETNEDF
Protocol: The assay measures the amount of ATPase (adenosine triphosphate (ATP)-adenosine diphosphate (ADP)) activity catalyzed by E. Coli RecA protein. In the assay, recA is incubated in reaction buffer with DNA, ATP and compounds of interest for a measured amount of time. The quantity of ATP remaining after the RecA reaction is quantitated using a subsequent luciferase assay. […] Details of the assay are provided below.
Materials. Kingase glo plus, adenosine triphosphate (ATP), Adenosine 5′-O-(3-thiotriphosphate), and 384 well plates, white were obtained from Fisher; and M13 mp18 Single-stranded DNA, RecA Protein and T4 Polynucleotide Kinase Reaction Buffer=PNK were obtained from New England Biolabs. PNK contained 70 mM Tris-CL pH 7.5, 10 mM MgCl2 and 5 mM DTT.
Assay Procedure. Final reaction mixture contains: 0.5 μL of M13 single stranded DNA (250 μg/mL); 1.0 μL of 10×PHK buffer; 0.25 μL of RecA (2 mg/mL); 0.25 μL of 1 mM ATP; 0.25 μL of test compound in DMSO; and […] of H2O.
Test compounds are incubated at room temperature in the presence of RecA protein and DNA prior to addition of ATP. This can be achieved by the preparation of two mixes, as indicated below. Desirably, both a no-DNA and a DNA/DMSO-only (i.e., no test compound) control were included.
The following steps are then performed: (1) Add 7.75 μL of mix 1 to the well of a 384 well plate; (2) Add 0.5 μL of the compound of interest; (3) Incubate at room temperature for 5 minutes; (4) Add 2.5 μL of the ATP mix. Incubate at room temperature for 30 minutes; (5) Add 12.5 μL of Promega Kinase glo plus; (6) Incubate at room temperature for 10 minutes or more; and (7) Measure luminescence of the reaction.
Tested compounds were obtained from Boston University (1205 compounds from CMLD diversity library, available from Dr. Scott Schauss), IndoFine (66 compounds based on flavone structure), ChemdiV (48 compounds known to be ATPase inhibitors and 720 compounds structurally related to CB101 (described, for example, in U.S. Ser. No. 60/662,038), and Asinex. Five (5) tested compounds were bisfiavones and 28 were predicted, based on structural modeling (see, for example, Example 31) to dock with Rec A. Many of the compounds are lipophilic, natural-product-like compounds. Others are flavones, bisflavones, flavonoids, coumarins, and/or heterocyclic compounds.
Percent inhibition is calculated according to the following equation: […]

S. aureus cells = test: Mutation/resistance assay, resistance to ciprofloxacin; format: cell-based; settings: 4×MIC ciprofloxacin with (+) or without (−) 25 μg/mL hinokiflavone
Protocol: This assay measures the rate at which mutant cells arise in the presence of an antibiotic agent. Cells are grown in the presence of antibiotic agent at a concentration above (generally well above, e.g., 4× or 8×) its MIC, and further in the presence or absence of a test agent (that may inhibit or enhance mutation).
Every 24 hours, an aliquot is removed from the culture and is diluted so that the antibiotic agent is no longer present at a concentration above its MIC (e.g., so that the antibiotic agent is present at 0.5×MIC or less). These aliquoted samples are then assayed to determine whether they can grow in the presence of the antibiotic agent. Specifically, when growth is observed in the presence of antibiotic agent at a concentration that is 4×MIC, then resistance is said to have developed. Test compounds can therefore be assayed to assess whether or not they can reduce the incidence of resistance (e.g., by inhibiting mutation).
These aliquoted samples were then assayed to determine whether they can grow in the presence of ciprofloxacin. […]

[2] = test system: S. aureus strain S3 (ISP 794); test: Survival assay, potentiation of ciprofloxacin, S. aureus strain S3; format: cell-based; settings: 1 μg/mL ciprofloxacin + 25 μg/mL hinokiflavone, 16 hour time point
Excerpt: Cell-based Survival Assay.

wildtype E. coli = test: NAD+/NADH extraction and NAD cycling assay; format: cell-based; settings: bacteriostatic drug
Excerpt: NAD+/NADH extraction and NAD cycling assay. Protocols for dinucleotide extraction and the cycling assay were based on protocols by Leonardo et al. (M. R. Leonardo et al., J. Bacteriol., 1996, 178: 6013-6018).
Using a modified version (M. R. Leonardo et al., J. Bacteriol., 1996, 178: 6013-6018;) of the NAD^+ cycling assay developed by Bernofsky and Swan (C. Bernofsky et al., Anal. Biochem., 1973, 53: 452-458), the present Applicants monitored NAD^+ and NADH concentrations in wildtype E. coli following treatment with the bactericidal drugs norfloxacin, ampicillin and kanamycin, as well as the bacteriostatic drug spectinomycin. For all three bactericidal drugs, a >5 fold increase in the NAD^+/NADH ratio was observed 0.5 hours after drug addition. This ratio returned to untreated levels by 1 hour. The increase in the NAD^+/NADH ratio was predominantly due to a large relative drop in NADH accompanied by a modest surge in NAD^+. This spike was not observed in an untreated culture, where the ratio of NAD^+/NADH remained tightly bounded. More importantly, treatment with the bacteriostatic drug spectinomycin had no effect on the NAD^+/NADH ratio relative to the untreated culture. A surge in NADH consumption upon exposure to bactericidal antibiotics should induce a burst in superoxide generation via the respiratory chain. […]

With `c1ccc(-c2ccccn2)nc1` [2,2′-dipyridyl] the “hydroxyl radical formation in norfloxacin-treated cultures” value (E. coli MG1655; addition of 2,2′-dipyridyl (500 μM)) was “significantly reduced hydroxyl radical formation” and the “survival of bactericidal drug-treated E. coli following addition of iron chelator” value (wild-type E. coli) was “significant increase in survival”.
In the case of `CO/N=C1\CN(c2nc3c(cc2F)c(=O)c(C(=O)O)cn3C2CC2)CC1CN` (stereo not drawn) [Gemifloxacin], the “activity relative to ciprofloxacin” value (Streptomyces pneumoniae) is listed as 30 fold.
For `CC1(C)S[C@@H]2[C@H](NC(=O)[C@H](N)c3ccccc3)C(=O)N2[C@H]1C(=O)O` [ampicillin], the “SOS activity (LexA-driven GFP expression)” value [1] was “induced the SOS response” and the hydroxyl radical formation (E. coli MG1655) was “induce hydroxyl radical formation”.
In the case of `O=c1cc(-c2ccc(Oc3c(O)cc4oc(-c5ccc(O)cc5)cc(=O)c4c3O)cc2)oc2cc(O)cc(O)c12` [hinokiflavone], the pIC50 (E. Coli RecA protein) was greater than 5.73, the “Number of Wells in which Growth Observed in Presence of Ciprofloxacin at 4x MIC” value (“Number of Wells in which Growth Observed” for short) (S. aureus cells; culture grown 0 days) was 0 and the “Number of Wells in which Growth Observed” value (S. aureus cells; culture grown 1 day) was 0. For the same molecule, the “Number of Wells in which Growth Observed” value (S. aureus cells; culture grown 5 days) was 0, the “Number of Wells in which Growth Observed” value (S. aureus cells; culture grown 6 days) was 0 and the “Number of Wells in which Growth Observed” value (S. aureus cells; culture grown 7 days) was 3. The “Number of Wells in which Growth Observed” value (S. aureus cells; culture grown 10 days) was 4 and the “fewer CFUs in the presence of hinokiflavone as compared with its absence” value [2] was “approximately 100 fold”.
In the case of `CN[C@@H]1[C@H](O)[C@H](NC)[C@H]2O[C@@]3(O)C(=O)C[C@@H](C)O[C@H]3O[C@@H]2[C@H]1O` [spectinomycin], the hydroxyl radical formation (E. coli MG1655) was “did not stimulate hydroxyl radical production” and the “effect on the NAD+/NADH ratio relative to the untreated culture” value (wildtype E. coli) was “no effect”.
